Literature values as cited in patent publication US20220323356A1, “METAL (HYDR)OXIDE COMPOSITE COMPRISING POORLY SOLUBLE DRUG, METHOD FOR PREPARING SAME, AND PHARMACEUTICAL COMPOSITION COMPRISING SAME” (priority 2020, published 2022).
Structures can show the parent of a compound that is named as a salt. *1 amine or outer side, *2 acyl side, *3 side chain or, on linkers, in order; H or OH if unused. Where a SMILES comes first, the peptide text is derived from it. Bridges are numbered along the chain shown (N, C = ends). [ ]: non-standard residue; d: D form. The star is where a group is joined. pTerphenylCO(4''-OnC5H11) = CCCCCOc1ccc(-c2ccc(-c3ccc(C(=O)*)cc3)cc2)cc1; Orn(4R-OH,5R-OH) = O=C([C@H](C[C@@H](O)[C@@H](O)N[*:3])N[*:1])[*:2]; hTyr(3S-OH,4S-OH) = N[C@H](C(=O)O)[C@H](O)[C@@H](O)c1ccc(O)cc1; Pro(3S-OH,4S-Me) = C[C@H]1CN[C@H](C(=O)O)[C@H]1O; Hyp = O=C(O)[C@@H]1C[C@@H](O)CN1

Conditions: in vivo; cited from earlier work

| Compound | bioavailability (%) |
| --- | --- |
| C[C@]12CC[C@H](O)CC1=CC[C@@H]1[C@@H]2CC[C@]2(C)C(c3cccnc3)=CC[C@@H]12 [Abiraterone] | <10% |
| O=C1O[C@H]([C@@H](O)CO)C(O)=C1O [Ascorbic acid] | 69% |
| CNC(=O)c1ccccc1Sc1ccc2c(/C=C/c3ccccn3)n[nH]c2c1 [Axitinib] | 58% |
| COc1cc(Nc2c(C#N)cnc3cc(OCCCN4CCN(C)CC4)c(OC)cc23)c(Cl)cc1Cl [Bosutinib] | 34% |
| COc1cc2nccc(Oc3ccc(NC(=O)C4(C(=O)Nc5ccc(F)cc5)CC4)cc3)c2cc1OC [Cabozantinib] | 74-93% |
| O=c1[nH]cc(F)c(=O)[nH]1 [Fluorouracil] | 28% |
| CC(=O)[C@]1(O)Cc2c(O)c3c(c(O)c2[C@@H](O[C@H]2C[C@H](N)[C@H](O)[C@H](C)O2)C1)C(=O)c1ccccc1C3=O [Idarubicin] | 20-25% |
| CC(=O)O[C@H]1C(=O)[C@@]2(C)[C@H]([C@H](OC(=O)c3ccccc3)[C@]3(O)C[C@H](OC(=O)[C@H](O)[C@@H](NC(=O)c4ccccc4)c4ccccc4)C(C)=C1C3(C)C)[C@]1(OC(C)=O)CO[C@@H]1C[C@@H]2O [Paclitaxel] | 30% |
| CCN(CC)CCOc1ccc2c(c1)C(=O)c1cc(OCCN(CC)CC)ccc1-2 [Tilorone] | 60% |
| CC[C@@]1(O)C(=O)OCc2c1cc1n(c2=O)Cc2cc3c(CN(C)C)c(O)ccc3nc2-1 [Topotecan] | 30-44% |
| CCN1CCN(Cc2ccc(Nc3ncc(F)c(-c4cc(F)c5nc(C)n(C(C)C)c5c4)n3)nc2)CC1 [abemaciclib(USAN), abemaciclib] | 45% |
| CC(=O)N[C@@H](CS)C(=O)O [acetylcysteine] | 10% |
| Oc1ncnc2[nH]ncc12 [allopurinol] | 67% |
| CCN(CC)Cc1cc(Nc2ccnc3cc(Cl)ccc23)ccc1O [amodiaquine] | 22% |
| CCCCCOc1ccc(-c2ccc(-c3ccc(C(=O)N[C@H]4C[C@@H](O)[C@@H](O)NC(=O)[C@@H]5[C@@H](O)[C@@H](C)CN5C(=O)[C@H]([C@@H](C)O)NC(=O)[C@H]([C@H](O)[C@@H](O)c5ccc(O)cc5)NC(=O)[C@@H]5C[C@@H](O)CN5C(=O)[C@H]([C@@H](C)O)NC4=O)cc3)cc2)cc1 [anidulafungin(LY303366), anidulafungin] ({pTerphenylCO(4''-OnC5H11)}-[Orn(4R-OH,5R-OH)]T[Hyp][hTyr(3S-OH,4S-OH)]T[Pro(3S-OH,4S-Me)]; lactam 1-C) | 2~7% |
| COC(=O)N[C@H](C(=O)N[C@@H](Cc1ccccc1)[C@@H](O)CN(Cc1ccc(-c2ccccn2)cc1)NC(=O)[C@@H](NC(=O)OC)C(C)(C)C)C(C)(C)C [atazanavir] | 60% |
| Cc1c(-c2ccc(O)cc2)n(Cc2ccc(OCCN3CCCCCC3)cc2)c2ccc(O)cc12 [bazedoxifene] | 6% |
| COc1cc2c3cc1Oc1c(OC)c(OC)cc4c1[C@@H](Cc1ccc(O)c(c1)Oc1ccc(cc1)C[C@@H]3N(C)CC2)N(C)CC4 [berbamine] | 30% |
| N.N.O=C([O-])C1(C(=O)[O-])CCC1.[Pt+2] [carboplatin] | 1.16% |
| COc1ccc2cc1Oc1ccc(cc1)C[C@H]1c3c(cc4c(c3Oc3cc5c(cc3OC)CCN(C)[C@@H]5C2)OCO4)CCN1C [cepharanthine] | 5% |
| Cc1cc(Nc2ncc(Cl)c(Nc3ccccc3S(=O)(=O)C(C)C)n2)c(OC(C)C)cc1C1CCNCC1 [ceritinib(LDK378), ceritinib] | 50% |

| Compound | bioavailability (%) |
| --- | --- |
| CCN(CC)CCCC(C)Nc1ccnc2cc(Cl)ccc12 (centres unmarked) [chloroquine] | 50~100% |
| CC(C)C(=O)OCC(=O)[C@@]12O[C@H](C3CCCCC3)O[C@@H]1C[C@H]1[C@@H]3CCC4=CC(=O)C=C[C@]4(C)[C@H]3[C@@H](O)C[C@@]12C [ciclesonide] | <1% |
| CCN(CC)CCOc1ccc(C(=C(Cl)c2ccccc2)c2ccccc2)cc1 [clomiphene] | 90% |
| CC(C)(C)c1nc(-c2cccc(NS(=O)(=O)c3c(F)cccc3F)c2F)c(-c2ccnc(N)n2)s1 [dabrafenib] | 95% |
| C[C@H]1O[C@@H](O[C@H]2[C@@H](O)C[C@H](O[C@H]3[C@@H](O)C[C@H](O[C@H]4CC[C@@]5(C)[C@H](CC[C@@H]6[C@@H]5CC[C@]5(C)[C@@H](C7=CC(=O)OC7)CC[C@]65O)C4)O[C@@H]3C)O[C@@H]2C)C[C@H](O)[C@@H]1O [digitoxin] | 98% |
| C[C@H]1O[C@@H](O[C@H]2[C@@H](O)C[C@H](O[C@H]3[C@@H](O)C[C@H](O[C@H]4CC[C@@]5(C)[C@H](CC[C@@H]6[C@@H]5C[C@@H](O)[C@]5(C)[C@@H](C7=CC(=O)OC7)CC[C@]65O)C4)O[C@@H]3C)O[C@@H]2C)C[C@H](O)[C@@H]1O [digoxin] | 50~90% |
| COc1cccc2c1C(=O)c1c(O)c3c(c(O)c1C2=O)C[C@@](O)(C(=O)CO)C[C@@H]3O[C@H]1C[C@H](N)[C@H](O)[C@H](C)O1 [doxorubicin] | 5% |
| CC/C(=C(/c1ccc(OCCN(C)C)cc1)c1cccc(O)c1)c1ccccc1 [droloxifene] | 2% |
| CCCCc1oc2ccc(NS(C)(=O)=O)cc2c1C(=O)c1ccc(OCCCN(CCCC)CCCC)cc1 [dronedarone] | 15% |
| CC1=NN(c2ccc(C)c(C)c2)C(=O)/C1=N\Nc1cccc(-c2cccc(C(=O)O)c2)c1O [eltrombopag] | 52% |
| C#Cc1cccc(Nc2ncnc3cc(OCCOC)c(OCCOC)cc23)c1 [erlotinib] | 59% |
| CO[C@H]1C[C@@H]2CC[C@@H](C)[C@@](O)(O2)C(=O)C(=O)N2CCCC[C@H]2C(=O)O[C@H]([C@H](C)C[C@@H]2CC[C@@H](OCCO)[C@H](OC)C2)CC(=O)[C@H](C)/C=C(\C)[C@@H](O)[C@@H](OC)C(=O)[C@H](C)C[C@H](C)/C=C/C=C/C=C/1C [everolimus] | 5% |
| NC(=O)c1nc(F)c[nH]c1=O [favipiravir] | 98% |
| CCc1nc(C(N)=O)c(Nc2ccc(N3CCC(N4CCN(C)CC4)CC3)c(OC)c2)nc1NC1CCOCC1 [gilteritinib] | 60% |
| Oc1c(Cl)cc(Cl)c(Cl)c1Cc1c(O)c(Cl)cc(Cl)c1Cl [hexachlorophene] | 4~10% |
| CCN(CCO)CCCC(C)Nc1ccnc2cc(Cl)ccc12 (centres unmarked) [hydroxychloroquine] | 70% |
| CC(=O)[C@@]1(O)CC[C@H]2[C@@H]3CCC4=CC(=O)CC[C@]4(C)[C@H]3CC[C@@]21C [hydroxyprogesterone] | 3% |
| COC1=C(OC)C(=O)C(CCCCCCCCCCO)=C(C)C1=O [idebenone] | <1% |
| CC(C)(C)c1cc(C(C)(C)C)c(NC(=O)c2c[nH]c3ccccc3c2=O)cc1O [ivacaftor] | 20~30% |
| CS(=O)(=O)CCNCc1ccc(-c2ccc3ncnc(Nc4ccc(OCc5cccc(F)c5)c(Cl)c4)c3c2)o1 [lapatinib] | 60% |
| N#Cc1cc(NC(=O)C(=O)O)c(Cl)c(NC(=O)C(=O)O)c1 [lodoxamide] | 71% |

| Compound | bioavailability (%) |
| --- | --- |
| CN(C)C(=O)C(CCN1CCC(O)(c2ccc(Cl)cc2)CC1)(c1ccccc1)c1ccccc1 [loperamide] | 0.3% |
| Cc1cccc(C)c1OCC(=O)N[C@@H](Cc1ccccc1)[C@@H](O)C[C@H](Cc1ccccc1)NC(=O)[C@H](C(C)C)N1CCCNC1=O [lopinavir] | 25% |
| OC(c1cc(C(F)(F)F)nc2c(C(F)(F)F)cccc12)C1CCCCN1 (centres unmarked) [mefloquine] | 85% |
| COc1ccc2[nH]cc(CCNC(C)=O)c2c1 [melatonin] | 15% |
| O=C(Nc1ccc([N+](=O)[O-])cc1Cl)c1cc(Cl)ccc1O [niclosamide] | 10% |
| Cc1cn(-c2cc(NC(=O)c3ccc(C)c(Nc4nccc(-c5cccnc5)n4)c3)cc(C(F)(F)F)c2)cn1 [nilotinib] | 30% |
| C=CC(=O)Nc1cc(Nc2nccc(-c3cn(C)c4ccccc34)n2)c(OC)cc1N(C)CCN(C)C [osimertinib(AZD-9291), osimertinib] | 70% |
| Cc1ccc(Nc2nccc(N(C)c3ccc4c(C)n(C)nc4c3)n2)cc1S(N)(=O)=O [pazopanib] | 14-39% |
| CC(=O)CCCCn1c(=O)c2c(ncn2C)n(C)c1=O [pentoxifylline] | 20% |
| C1CCC(C(CC2CCCCN2)C2CCCCC2)CC1 (centres unmarked) [perhexiline maleate] | 80% |
| CCCN[C@H]1CCc2nc(N)sc2C1 [pramipexole] | 90% |
| CC(C)(Sc1cc(C(C)(C)C)c(O)c(C(C)(C)C)c1)Sc1cc(C(C)(C)C)c(O)c(C(C)(C)C)c1 [probucol] | 6% |
| C[C@@H]1O[C@@H](O[C@@H]2C=C3CC[C@@H]4[C@H](CC[C@]5(C)[C@@H](c6ccc(=O)oc6)CC[C@]45O)[C@@]3(C)CC2)[C@H](O)[C@H](O)[C@H]1O [proscillaridin] | 25% |
| O=c1c(O)c(-c2ccc(O)c(O)c2)oc2cc(O)cc(O)c12 [quercetin] | 20% |
| CC[C@@H](C(=O)[C@@H](C)[C@@H](O)[C@H](C)[C@@H]1O[C@@H]([C@@H](CC)C(=O)O)CC[C@@H]1C)[C@H]1O[C@]2(C=C[C@@H](O)[C@]3(CC[C@@](C)([C@H]4CC[C@](O)(CC)[C@H](C)O4)O3)O2)[C@H](C)C[C@@H]1C [salinomycin] | 73% |
| Cc1c(C(=O)Nc2ccc(N3C[C@@H](C)O[C@@H](C)C3)nc2)cccc1-c1ccc(OC(F)(F)F)cc1 [sonidegib] | 69% |
| Cn1nnc2c(C(N)=O)ncn2c1=O [temozolomide] | 100% |
| CSc1ccc2c(c1)N(CCC1CCCCN1C)c1ccccc1S2 (centres unmarked) [thioridazine] | 28% |
| CN(C)CCOc1ccc(/C(=C(/CCCl)c2ccccc2)c2ccccc2)cc1 [toremifene] | 100% |
| CC(=O)Nc1cccc(-n2c(=O)n(C3CC3)c(=O)c3c(Nc4ccc(I)cc4F)n(C)c(=O)c(C)c32)c1 [trametinib] | 72% |
